In patent publication US7291641B2, “Derivatives of heterocycles with 5 members, their preparation and their use as medicaments” (Societe de Conseils de Recherches et d'Applications …, priority 1999, dated 2007) one finds melting point data, which are given here for 38 compounds.

Counter-ions that a name gives are not always drawn.

The term melting point denotes the temperature of the solid-liquid transition.

The compound `CC(C)CCC(NC1CCCCC1)c1nc(-c2ccc(F)cc2)c[nH]1` (racemic) (as salt: hydrochloride) [Example 257, (R,S)-N-{1-[4-(4-fluorophenyl)-1H-imidazol-2-yl]4-methylpentyl}-cyclohexanamine] returned a melting point of 230 to 232 °C.

`Fc1ccc(-c2c[nH]c([C@@H](NC3CCCCC3)C3CCCCC3)n2)cc1` (as salt: hydrochloride) [Example 264, N-{(S)-cyclohexyl[4-(4-fluorophenyl)-1H-imidazol-2-yl]methyl}cyclohexanamine] yielded a melting point of more than 250 °C.

`c1ccc(CN[C@H](Cc2c[nH]c3ccccc23)c2nc(-c3ccccc3)c[nH]2)cc1` [Example 88, (1R)-N-benzyl-2-(1H-indol-3-yl)-1-(4-phenyl-1H-imidazol-2-yl)ethanamine]: the melting point fell in the range of 100 to 102 °C.

In turn, `CCCCC(N)c1nc(-c2ccccc2)c[nH]1` (racemic) (as salt: hydrochloride) [Example 181, (R,S)-1-(4-phenyl-1H-imidazol-2-yl)pentylamine] yielded a melting point of 178 to 180 °C.

Take `CC(C)(C)OC(=O)NCc1nc(-c2ccccc2)cn1Cc1ccccc1` [Example 104, tert-butyl (1-benzyl-4-phenyl-1H-imidazol-2-yl)methylcarbamate]: the melting point is 140 to 142 °C.

For the compound `CC(C)(C)OC(=O)NCc1nc(-c2ccc(-c3ccccc3)cc2)cn1Cc1ccccc1` [Example 140, 4-(1-benzyl-2-{[(tert-butoxycarbonyl)amino]methyl}-1H-imidazol-4-yl)-1,1′-biphenyl], the melting point fell in the range of 167 to 169 °C.

`CC(C)CCOC(=O)NCCc1nc(-c2ccc(-c3ccccc3)cc2)c[nH]1` [Example 380, isopentyl 2-[4-(1,1′-biphenyl-4-yl)-1H-imidazol-2-yl]ethylcarbamate]: the melting point lay within 128 to 130 °C.

`CC(C)COC(=O)NCCc1nc(-c2ccc(-c3ccccc3)cc2)c[nH]1` [Example 239, 4-(2-{2-[(isobutoxycarbonyl)amino]ethyl}-1H-imidazol-4-yl)-1,1′-biphenyl]: the melting point is 134 to 135 °C.

As to `Fc1ccc(-c2c[nH]c([C@@H](NC3CCC3)C3CCCCC3)n2)cc1F` [Example 262, N-{(S)-cyclohexyl[4-(3,4-difluorophenyl)-1H-imidazol-2-yl]methyl}cyclobutanamine], the melting point was 200 to 202 °C.

On to `CCCCCCC(NC(C)C)c1nc(-c2ccccc2)c[nH]1` (racemic) [Example 248, (R,S)-N-isopropyl-N-[1-(4-phenyl-1H-imidazol-2-yl)heptyl]amine], for which the melting point was in the range of 114 to 116 °C.

The compound `CCCCOC(=O)NCCc1nc(-c2ccc(-c3ccccc3OC)cc2)c[nH]1` [Example 458, butyl 2-[4-(2′-methoxy-1,1′-biphenyl-4-yl)-1H-imidazol-2-yl]ethylcarbamate] came in with a melting point of 116 to 121 °C.

Regarding `CC[C@H](NC(=O)OC(C)(C)C)c1nc(-c2ccccc2)c(-c2ccccc2)[nH]1` [Example 197, tert-butyl (1S)-1-(4,5-diphenyl-1H-imidazol-2-yl)propylcarbamate], the melting point was in the range of 136 to 138 °C.

The compound `CCC[C@@H](N)c1nc(-c2ccc(-c3ccccc3)cc2)c[nH]1` (as salt: hydrochloride) [Example 209, (1R)-1-(4-[1,1′-biphenyl]-4-yl-1H-imidazol-2-yl)-1-butanamine] displayed a melting point of 155.4 °C.

As for `O=C(NCCc1nc(-c2ccc(-c3ccc(Br)cc3)cc2)c[nH]1)OCC1CCCCC1` [Example 303, cyclohexylmethyl 2-[4-(4′-bromo-1.1′-biphenyl-4-yl)-1H-imidazol-2-yl]ethylcarbamate], the melting point fell in the range of 130 to 132 °C.

As to `c1ccc(CN[C@H](Cc2ccccc2)c2nc(-c3ccccc3)c[nH]2)cc1` [Example 48, (1R)-N-benzyl-2-phenyl-1-(4-phenyl-1H-imidazol-2-yl)ethanamine], the melting point lay in the range of 228 to 230 °C.

Compound `CCCCCCC(NCCC)c1nc(-c2ccccc2)c[nH]1` (racemic) [Example 224, (R,S)-N-[1-(4-phenyl-1H-imidazol-2-yl)heptyl]-N-propylamine] came in with a melting point of 94 to 98 °C.

The compound `Fc1ccc(-c2c[nH]c(C(Cc3c[nH]c4ccc(F)cc34)NC3CCC3)n2)cc1` (racemic) (as salt: hydrochloride) [Example 256, (R,S)-N-{2-(5-fluoro-1H-indol-3-yl)-1-[4-(4-fluorophenyl)-1H-imidazol-2-yl]ethyl}cyclobutanamine] showed a melting point of 180 to 190 °C.

Consider `Brc1cccc(-c2c[nH]c(CNC3CCCCC3)n2)c1` [Example 254, N-{[4-(3-bromophenyl)-1H-imidazol-2-yl]methyl}cyclohexanamine], for which the melting point was 202 to 204 °C.

In the case of `CCCCOC(=O)NCCc1nc(-c2ccc(-c3ccc(SC)cc3)cc2)c[nH]1` [Example 397, butyl 2-{4-[4′-(methylthio)-1,1′-biphenyl-4-yl]-1H-imidazol-2-yl}ethylcarbamate], the melting point turned out to be 167.9 °C.

For `CCCCCCN(Cc1ccccc1)Cc1nc(-c2ccc(-c3ccccc3)cc2)c[nH]1` [Example 41, N-benzyl-N-[(4-[1,1′-biphenyl]-4-yl-1H-imidazol-2-yl)methyl]-1-hexanamine], the melting point is 120 to 122 °C.

`CCCCOC(=O)NC(C)(C)c1nc(-c2ccc(-c3ccccc3)cc2)c[nH]1` [Example 238, 4-(2-{1-[(butoxycarbonyl)amino]-1-methylethyl}-1H-imidazol-4-yl)-1,1′-biphenyl] gave a melting point of 170 to 172 °C.

For `c1ccc(CNCCCc2nc(-c3ccc(-c4ccccc4)cc3)c[nH]2)cc1` [Example 178, N-benzyl-3-(4-[1,1′-biphenyl]-4-yl-1H-imidazol-2-yl)-1-propanamine], the melting point was 254 to 256 °C.

`Fc1ccc(-c2c[nH]c(C(CCCC(F)(F)F)NC3CCCCC3)n2)cc1` (racemic) [Example 136, (R,S)-N-{5,5,5-trifluoro-1-[4-(4-fluorophenyl)-1H-imidazol-2-yl]pentyl}cyclohexanamine]: the melting point was determined as 220 °C.

In turn, `CCCCOC(=O)NCCc1nc(-c2cc(C(C)(C)C)c(O)c(C(C)(C)C)c2)c[nH]1` [Example 330, butyl 2-[4-(3,5-ditert-butyl-4-hydroxyphenyl)-1H-imidazol-2-yl]ethylcarbamate] registered a melting point of 180.9 °C.

Regarding `CC(C)(C)OC(=O)N(Cc1ccccc1)Cc1nc(-c2ccc(-c3ccccc3)cc2)c[nH]1` [Example 165, 4-(2-{[benzyl(tert-butoxycarbonyl)amino]methyl}-1H-imidazol-4-yl)-1,1′-biphenyl], the melting point lay in the range of 130 to 132 °C.

In turn, `CN(Cc1ccccc1)[C@H](Cc1c[nH]c2ccccc12)c1nc(-c2ccccc2)c[nH]1` [Example 46, (1R)-N-benzyl-2-(1H-indol-3-yl)-N-methyl-1-(4-phenyl-1H-imidazol-2-yl)ethanamine] gave a melting point of 110 to 112 °C.

In turn, `CCCCOC(=O)N[C@@H](C)c1nc(-c2ccc(-c3ccccc3)cc2)c[nH]1` [Example 241, 4-(2-{(1S)-1-[(butoxycarbonyl)amino]ethyl}-1H-imidazol-4-yl)-1,1′-biphenyl] displayed a melting point of 118 to 122 °C.

Take `NC(Cc1c[nH]c2cc(Cl)ccc12)c1nc(-c2ccccc2)c[nH]1` (racemic) (as salt: hydrochloride) [Example 122, (R,S)-2-(6-chloro-1H-indol-3-yl)-1-(4-phenyl-1H-imidazol-2-yl)ethylamine]: the melting point lay in the range of 210 to 212 °C.

Turning to `CCCCCCC(NCc1ccccc1)c1nc(-c2ccccc2OC)c[nH]1` (racemic) [Example 201, (R,S)-N-benzyl-1-[4-(2-methoxyphenyl)-1H-imidazol-2-yl]-1-heptanamine], the melting point was 155 to 157 °C.

In turn, `CC(C)(C)OC(=O)NC1(c2nc(-c3ccccc3)c[nH]2)CCCCC1` [Example 113, tert-butyl 1-(4-phenyl-1H-imidazol-2-yl)cyclohexylcarbamate] had a melting point of 170 to 172 °C.

Compound `CCCCOC(=O)NCCc1nc(-c2ccc(C(F)(F)F)cc2)c[nH]1` [Example 300, butyl 2-{4-[4-(trifluoromethyl)phenyl]-1H-imidazol-2-yl}ethylcarbamate] gave a melting point of 104 to 105 °C.

In turn, `CC(C)(C)c1c[nH]c([C@H](N)Cc2c[nH]c3ccccc23)n1` (as salt: hydrochloride) returned a melting point of 230 to 232 °C.

`CC(C)(C)c1cc(-c2c[nH]c(CCNC(=O)OCc3ccccc3)n2)cc(C(C)(C)C)c1O` [Example 389, benzyl 2-[4-(3,5-ditert-butyl-4-hydroxyphenyl)-1H-imidazol-2-yl]ethylcarbamate] showed a melting point of 177.5 °C.

The compound `N[C@H](CCc1ccccc1)c1nc(-c2ccc(-c3ccccc3)cc2)c[nH]1` (as salt: hydrochloride) [Example 166, (1R)-1-(4-[1,1′-biphenyl]-4-yl-1H-imidazol-2-yl)-3-phenyl-1-propanamine] showed a melting point of 215 to 218 °C.

`CC(C)(C)CCOC(=O)NCCc1nc(-c2ccc(-c3ccccc3)cc2)c[nH]1` [Example 383, 3,3-dimethylbutyl 2-[4-(1,1′-biphenyl-4-yl)-1H-imidazol-2-yl]ethylcarbamate] yielded a melting point of 98.4 °C.

The compound `Fc1cccc(-c2c[nH]c([C@@H](NCC3CCCCC3)C3CCCCC3)n2)c1` (as salt: hydrochloride) [Example 312, (S)-1-cyclohexyl-N-(cyclohexylmethyl)-1-[4-(3-fluorophenyl)-1H-imidazol-2-yl]methanamine] yielded a melting point of 180 to 186 °C.

Consider `CC(C)(C)OC(=O)N[C@H](CC1CCCCC1)c1nc(-c2ccccc2)c[nH]1` [Example 130, tert-butyl (1R)-2-cyclohexyl-1-(4-phenyl-1H-imidazol-2-yl)ethylcarbamate], for which the melting point fell in the range of 184 to 185 °C.

As for `CCN(CC)c1ccc(-c2c[nH]c([C@@H](NC3CCCCC3)C3CCCCC3)n2)cc1` (as salt: hydrochloride) [Example 292, 4-{2-[(S)-cyclohexyl(cyclohexylamino)methyl]-1H-imidazol-4-yl}-N,N-diethylaniline], the melting point fell in the range of 204 to 210 °C.
